According to patent EP0155872A1, “Process for reducing the lignin content of plants, and compositions for putting it into use” (priority 1984, dated 1985):

Assays:
CAD de peuplier = target: T1, CAD de peuplier (Populus deltoides, UniProt P31657); assay: In vitro inhibition of isolated poplar cinnamyl alcohol dehydrogenase (CAD) at 2 mM; format: biochemical; details: 2mM, CAD de peuplier; for inhibition at 2000 µM: read-out: Inhibition à 2mM %
T1 construct: CAD de peuplier isolée selon la méthode deSARNI et al,1984; from tissue; host or cells: poplar plant material
T1 sequence (P31657 1-357): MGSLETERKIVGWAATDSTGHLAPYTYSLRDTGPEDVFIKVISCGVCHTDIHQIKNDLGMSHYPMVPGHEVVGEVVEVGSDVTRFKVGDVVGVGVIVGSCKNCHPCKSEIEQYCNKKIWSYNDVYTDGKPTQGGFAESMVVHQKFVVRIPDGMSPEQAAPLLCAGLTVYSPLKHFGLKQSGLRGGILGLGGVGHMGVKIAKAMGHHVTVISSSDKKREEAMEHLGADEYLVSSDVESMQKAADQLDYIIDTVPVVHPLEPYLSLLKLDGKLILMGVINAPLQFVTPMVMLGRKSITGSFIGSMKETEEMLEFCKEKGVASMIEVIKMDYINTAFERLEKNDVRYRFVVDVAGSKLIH
From the text: Après réacidification à pH2 par de l'acide chlorhydrique 3N et centrifugation, le surnageant contenant les acides cinnamiques est séparé du résidu. Les "poudres alcool-benzène" ainsi hydrolysées sont lavées par de l'eau distillée jusqu'à pH neutre et séchées, sous vide dans un dessiccateur en présence de silica.-gel. Les teneurs en lignines sont estimées par la méthode gravimétriques de KLASON (Tappi Standard method Tl2m) modifiée par EFFLAND. Tappi, 60, p 143-144, 1977. On rapporte dans le tableau 1) suivant les résultats obtenus concernant l'effet mesuré in vitro d'inhibiteurs selon l'invention à une concentration de 2mM vis-à-vis de la CAD de peuplier isolée selon la méthode deSARNI et al,1984,EUROP JOURNAL OF BIOCHEMISTRY, 18(1),139, 259-265 On indique également dans ce tableau les résultats obtenus avec des composés portant des substitutions différentes de ceux mis enoe uvre dans l'invention. Les chiffres indiqués entre parenthèses a côté des formules correspondent aux composés identifiés dans les exemples de préparation 2 et 3.
On rapporte dans le tableau 2 suivant les pourcentages d'inhibition de la CAD obtenus en utilisant, à raison de 2 mM, différents composés capables de complexer Zn.

CAD = target: T2, CAD (Populus deltoides, UniProt P31657); assay: Specificity of the inhibitors among the enzymes tested; format: biochemical
T2 sequence (P31657 1-357): T1 sequence (P31657 1-357)

tiges de peuplier = assay: Incorporation of cinnamic acid (14C3) into lignins in cut poplar stems; format: in vivo; details: 96 heures de métabolisation, read-out: inhibition de l'incorporation de l'acide cinnamique dans le polymère
From the text: Afin de vérifier chez des tiges de peuplier l'action de l'OHPAS et du NH2PAS, on réalise des incorporations d'acide cinnamique (5 yCi) à des rameaux comportant 12 entrenoeuds selon la technique de la tige sectionnée décrite par BOUDET,dans C.R. Acad. Sci.Paris, p. 1966-1968, 269, 1969. La radioactivité des lignines est mesurée après 96 heures de métabolisation.
Lorsque la métabolisation est effectuée en présence du OHPAS et du NH2PAS, on observe une diminution de la radioactivité incorporée dans les lignines. Ainsi, l'OHPAS, à la concentration de 160 µM inhibe de 46% l'incorporation de l'acide cinnamique dans le polymère. Bien que les concentrations en inhibiteurs soient plus faibles, l'effet des inhibiteurs apparaîtsemanifester de façon plus nette-pour une métabolisation de plus longue durée.

CCR = assay: Inhibition of cinnamoyl:CoA reductase (CCR); format: biochemical

## CC(C)(C)OC(=O)C[S+]([O-])Nc1ccccc1O (stereo not drawn) [composé 2, N-(o -hydroxy phényl)sulfinamoyl acétate de tertiobutyle]
CAD de peuplier
  inhibition at 2000 µM: 90%
CAD
  spécificité en regard des enzymes testées: spécificité stricte vis-à-vis de la CAD
Tiges de peuplier
  inhibition at 160 µM: 46%

## CC(C)(C)OC(=O)C[S+]([O-])Nc1ccccc1N (stereo not drawn) [composé 5, N-(o-Amino phényl)Sulfinamoyl Acétate de tertiobutyle]
CAD de peuplier; 2000 µM
  Inhibition à 2mM %: 80%
CAD de peuplier
  inhibition at 2000 µM: 90%
CCR
  inhibition de la CCR: inhibe également la CCR
